Reference: patent US10981932B2, “Macrocyclic indole derivatives” (Bayer Aktiengesellschaft, priority 2016, dated 2021)
“And” between values parts separate entries of the source, which are not always exact repeats. Equal entries are not always repeated. Structures can show the parent of a compound that is named as a salt. Where two headings read alike, the source gives them in different places.

How the values were obtained:
NCI-H1703 = assay: Anti-proliferative effect (CellTiter-Glo, 72 h), NCI-H1703; format: cell-based; details: Homo sapiens, NCI-H1703 cells, median, read-out: IC50 antiproliferation assay NCI-H1703 [M] (median)
Description: (§1) The impact of compounds on the proliferation of different cell lines was assessed using the CellTiter-Glo® Luminescent Cell Viability reagent from Promega (G7573). Of note, SUDHL10 and SUDHL5 (DLBCL), NCI-H929 (Multiple Myeloma), A2780 (ovarian carcinoma) as well as MV-4-11(AML) cells are sensitive to MCL-1 inhibition.
(§2) In parallel, cells were plated in a reference (day 0) plate for time zero determination.
(§3) Rim wells were excluded. The cells were incubated for 72 h hours in a humidified incubator at 37° C. The day 0 plate was measured by adding 30 μl/well of CTG solution (CellTiter-Glo® Luminescent Cell Viability reagent, Promega G7573) to time zero wells in the reference plate followed by a 10 minutes incubation and luminescence reading at 0.1 ms, using the PHERAstar FS microplate reader (BMG Labtech).
(§4) After 72 h incubation, the treated plates were measured in the same way as the day 0 plate mentioned above.

MV-4-11 = assay: Anti-proliferative effect (CellTiter-Glo, 72 h), MV-4-11; format: cell-based; details: MV-4-11 cells, median, read-out: IC50 antiproliferation assay MV-4-11 [M] (median)
Method in brief: (§5)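 Luminescence from CellTiter-Glo, read 10 min after reagent addition, reports viable cell content after 72 h of compound treatment at 37 °C. A reference plate read at day 0 gives the starting baseline.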

BCL-2 = target: T1, BCL-2 (Homo sapiens, UniProt P10415); assay: Protein-protein interaction assay BCL-2/Bad BH3 peptide (BCL-2 assay), TR-FRET; format: binding; details: His-BCL-2 / Bad BH3-derived peptide, median
T1 construct: BCL-2 (amino acids 1-211, C-terminal fused to a hexahistidine (6×His) tag); purchased BPS Bioscience (San Diego, Calif., USA); host or cells: E. coli
Description: Protein-Protein Interaction Assay: BCL-2/Bad BH3 Peptide (BCL-2 Assay)
The dose-dependent inhibition by the compounds described in this invention of the interaction between BCL-2 and the BH3 domain of Bad (both human) was determined using a steady state binding competition assay with time-resolved fluorescence energy transfer (TR-FRET) readout. For that purpose BCL-2 (amino acids 1-211, C-terminal fused to a hexahistidine (6×His) tag and a synthetic Bad BH3-derived peptide of sequence Biotin-PEG2-PEG2-NLWAAQRYGRELRR-Nle-SDEFVDSFKK-amide (SEQ ID NO: 2) served as protein receptor and tracer ligand respectively. The recombinant BCL-2 protein (expressed in E. coli) was purchased from BPS Bioscience (San Diego, Calif., USA). The Bad BH3-derived peptide can be obtained from e.g. Biosyntan (Berlin, Germany).
In the assay 11 different concentrations of each compound (0.1 nM, 0.33 nM, 1.1 nM, 3.8 nM. 13 nM, 44 nM, 0.15 μM, 0.51 μM, 1.7 μM, 5.9 μM and 20 μM) were typically measured as duplicates in the same microtiter plate. For that, 100-fold concentrated DMSO solutions were prepared by serial dilutions (1:3.4) of a 2 mM stock solution in a clear, 384-well microtiter plate (Greiner Bio-One, Frickenhausen, Germany). From there, 50 nl were transferred in a dark test plate (Greiner Bio-One. Frickenhausen, Germany). The assay was initiated by addition of 2 μl of a 2,5-fold concentrated His-BCL-2 solution (usually for a 1 nM end concentration in 5 μl reaction volume) in aqueous assay buffer [50 mM Tris/HCl pH 7, 100 mM sodium chloride (NaCl), 50 mM potassium fluoride (KF), 0.005% Tween-20, 2 mM DTT, 0.1% bovine gamma globulin (BGG)] to the compounds in the assay plate. This was followed by a 10-minute incubation step at 22° C. for pre-equilibration of the putative complex between His-BCL-2 and the compounds.
The mixture was incubated in the dark for one hour at 22° C. and then overnight at 4° C. The formation of BCL-2/Bad complexes was determined by measuring the resonance energy transfer of the anti-His-Eu-cryptate antibody to the streptavidin-XL665 present in the reaction. For that purpose, the fluorescence emission at 620 nm and 665 nm after excitation at 330-350 nm was measured in a TR-FRET measuring instrument, for instance a Rubystar or a Pherastar (both from BMG Lab Technologies. Offenburg, Germany) or a Viewlux (Perkin-Elmer). The ratio of the emission at 665 nm and at 622 nm was used as indicator of the amount of BCL-2/Bad complexes present.
The resulting data (ratio) were normalized, taking 0% inhibition as the mean value of control measurements (usually 32 data points) where all reagents were included. In this case 50 nl DMSO were used instead of compounds. A 100% inhibition corresponded to the mean value of control measurements (usually 32 data points) where all reagents except BCL-2 were included. IC50 values were determined by regression analysis based on a 4 parameter equation (minimum, maximum, IC50, Hill; Y=Max+(Min−Max)/(1+(X/IC50)^Hill) using the Screener Software (Genedata).

A2780 = assay: Anti-proliferative effect (CellTiter-Glo, 72 h), A2780; format: cell-based; details: A2780 cells, median, read-out: IC50 antiproliferation assay A2780 [M] (median)
Method in brief: as §5

OPM2 = assay: Anti-proliferative effect (CellTiter-Glo, 72 h), OPM2; format: cell-based; details: OPM2 cells, median, read-out: IC50 antiproliferation assay OPM2 [M] (median)
Method in brief: as §5

SK-MEL-2 = assay: Anti-proliferative effect (CellTiter-Glo, 72 h), SK-MEL-2; format: cell-based; details: Homo sapiens, SK-MEL-2 cells, median, read-out: IC50 antiproliferation assay SK-MEL-2 [M] (median)
Description: Assessment of the Anti-Proliferative Effect of Compounds in Different Cell Lines
as §1, §2, §3, §4

SUDHL10 = assay: Induction of caspase-3/7 activity (Caspase-Glo 3/7), SUDHL10; format: cell-based; details: caspase-3/7 induction, SUDHL10 cells, 3 h treatment, median
Method in brief: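 Apoptosis induction measured as caspase-3/7 activity (Caspase-Glo 3/7) in DLBCL lines after 3 h treatment at 37 °C; EC50 derived relative to the reference compound's maximal induction, with C0 fixed at 1.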

T1 sequence (P10415 1-211): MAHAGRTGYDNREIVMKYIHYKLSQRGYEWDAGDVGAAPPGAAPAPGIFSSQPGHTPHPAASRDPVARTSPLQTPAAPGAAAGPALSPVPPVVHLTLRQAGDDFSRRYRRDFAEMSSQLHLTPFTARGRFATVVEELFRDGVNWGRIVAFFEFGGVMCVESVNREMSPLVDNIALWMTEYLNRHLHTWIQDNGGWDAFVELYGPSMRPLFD

`CN1CCCn2c(C(=O)O)c(CCCOc3cccc4ccccc34)c3cccc(c32)-c2c(COc3ccc(N4CCN(S(=O)(=O)N(C)C)CC4)cc3)nn(C)c2C1` (single isomer, unassigned; enantiomer 1) [Example 1-15, (+)-11-({4-[4-(dimethylsulfamoyl)piperazin-1-yl]phenoxy}methyl)-7,9-dimethyl-1-[3-(naphthalen-1-yloxy)propyl]-4,5,6,7,8,9-hexahydropyrazolo[3′,4′:7,8][1,5]diazecino[9,10,1-hi]indole-2-carboxylic Acid (Enantiomer 1)] was tested, and the IC50 (NCI-H1703) was 1.1e-05 M, the IC50 (MV-4-11; Homo sapiens, MV4-11, 72 h) was 3.52e-06 M and the IC50 (BCL-2) was greater than 20 µM. The IC50 (A2780; Homo sapiens, A2780, 72 h) was 7.24e-06 M, the IC50 (OPM2) was 1.91e-06 M and the IC50 (SK-MEL-2) was greater than 3.3e-05 M. For the same molecule, the EC50 (SUDHL10) was 1.82 µM.
`Cc1nn(C)c2c1-c1cccc3c(CCCOc4cccc5ccccc45)c(C(=O)O)n(c13)CCCN(C)C2` (single isomer, unassigned; enantiomer 1) [Example 1-31, 7,9,11-trimethyl-1-[3-(naphthalen-1-yloxy)propyl]-4,5,6,7,8,9-hexahydropyrazolo[3′,4′:7,8][1,5]diazecino[9,10,1-hi]indole-2-carboxylic Acid-N-ethylethanamine Salt (Enantiomer 1)] showed an IC50 (MV-4-11; Homo sapiens, MV4-11, 72 h) of 2.61e-06 M, an IC50 (BCL-2) greater than 20 µM and an IC50 (A2780; Homo sapiens, A2780, 72 h) greater than 3.3e-05 M. The IC50 (OPM2) was 1.05e-05 M and the EC50 (SUDHL10) was 7.27 µM.
With `Cc1c2c(nn1C)COCCCCn1c(C(=O)O)c(CCCOc3cccc4ccccc34)c3cccc-2c31` (single isomer, unassigned; enantiomer 1) [Example 1-37, (+)-2,3-dimethyl-7-[3-(naphthalen-1-yloxy)propyl]-2,10,11,12,13,15-hexahydropyrazolo[4′,3′:9,10][1,6]oxazacycloundecino[8,7,6-hi]indole-8-carboxylic Acid (Enantiomer 1)] the IC50 (MV-4-11; Homo sapiens, MV4-11, 72 h) was 4.02e-06 M, the IC50 (BCL-2) was greater than 20 µM and the IC50 (A2780; Homo sapiens, A2780, 72 h) was 3.02e-05 M. The IC50 (OPM2) was 6.53e-06 M and the EC50 (SUDHL10) was 3.84 µM.
With `CN1CCCn2c(C(=O)O)c(CCCOc3cccc4ccccc34)c3cccc(c32)-c2c(CN3CCOCC3)nn(C)c2C1` (single isomer, unassigned; enantiomer 1) [Example 1-43, (+)-7,9-dimethyl-11-(morpholin-4-ylmethyl)-1-[3-(naphthalen-1-yloxy)propyl]-4,5,6,7,8,9-hexahydropyrazolo[3′,4′:7,8][1,5]diazecino[9,10,1-hi]indole-2-carboxylic Acid (Enantiomer 1)] the IC50 (MV-4-11; Homo sapiens, MV4-11, 72 h) was 6.59e-06 M, the IC50 (BCL-2) was greater than 20 µM and the IC50 (A2780; Homo sapiens, A2780, 72 h) was 2.48e-05 M. The IC50 (OPM2; Homo sapiens, OPM-2, 72 h) was 1.81e-05 M and the EC50 (SUDHL10; Homo sapiens, SU-DHL10, 3 h) was 11.1 µM.
With `CN1CCCn2c(C(=O)O)c(CCCOc3cccc4ccccc34)c3cccc(c32)-c2c(COc3ccc(N4CCN(S(C)(=O)=O)CC4)cc3)nn(C)c2C1` (single isomer, unassigned; enantiomer 1) [Example 1-46, (+)-7,9-dimethyl-11-({4-[4-(methylsulfonyl)piperazin-1-yl]phenoxy}methyl)-1-[3-(naphthalen-1-yloxy)propyl]-4,5,6,7,8,9-hexahydropyrazolo[3′,4′:7,8][1,5]diazecino[9,10,1-hi]indole-2-carboxylic Acid (Enantiomer 1)] the IC50 (MV-4-11; Homo sapiens, MV4-11, 72 h) was 7.2e-07 M, the IC50 (BCL-2) was 2.34 µM and the IC50 (A2780; Homo sapiens, A2780, 72 h) was 7.08e-06 M. For the same molecule, the IC50 (OPM2) was 1.52e-06 M and the EC50 (SUDHL10) was 1.74 µM.
`Cc1nn(C)c2c1-c1cccc3c(CCCOc4cccc5cc(F)ccc45)c(C(=O)O)n(c13)CCCOC2` (single isomer, unassigned; enantiomer 1) [Example 047, 1-{3-[(6-fluoronaphthalen-1-yl)oxy]propyl}-9,11-dimethyl-5,6,8,9-tetrahydro-4H-pyrazolo[4′,3′:8,9][1,5]oxazecino[7,6,5-hi]indole-2-carboxylic acid-N-ethylethanamine Salt (Enantiomer 1)] gave an IC50 (MV-4-11) of 5.38e-06 M, an IC50 (BCL-2) greater than 20 µM and an IC50 (A2780) of 2.69e-05 M. For the same molecule, the EC50 (SUDHL10) was 6.66 µM.
In the case of `Cc1nn(C)c2c1-c1cccc3c(CCCOc4ccc(F)c5ccccc45)c(C(=O)O)n(c13)CCCCOC2` (single isomer, unassigned; enantiomer 2) [Example 023, 7-{3-[(4-fluoronaphthalen-1-yl)oxy]propyl}-1,3-dimethyl-1,10,11,12,13,15-hexahydropyrazolo[4′3′:9,10][1,6]oxazacycloundecino[8,7,6-hi]indole-8-carboxylic acid-N-ethylethanamine Salt (Enantiomer 2)], the IC50 (MV-4-11; Homo sapiens, MV4-11, 72 h) was 2.29e-06 M, the IC50 (BCL-2) was greater than 20 µM and the IC50 (A2780) was 2e-05 M and > 3.3e-05 M. The IC50 (OPM2; Homo sapiens, OPM-2, 72 h) was 6.79e-06 M and the EC50 (SUDHL10) was 7.46 µM.
In the case of `Cc1c2c(nn1CCN1CCOCC1)CN(C)CCCn1c(C(=O)O)c(CCCOc3cccc4ccccc34)c3cccc-2c31` (single isomer, unassigned; enantiomer 2) [Example 061, 7,11-dimethyl-10-[2-(morpholin-4-yl)ethyl]-1-[3-(naphthalen-1-yloxy)propyl]-4,5,6,7,8,10-hexahydropyrazolo[3′,4′:7,8][1,5]diazecino[9,10,1-hi]indole-2-carboxylic Acid (Enantiomer 2)], the IC50 (MV-4-11; Homo sapiens, MV4-11, 72 h) was 8.02e-06 M, the IC50 (BCL-2) was greater than 20 µM and the IC50 (A2780) was 1.14e-05 M. For the same molecule, the IC50 (OPM2) was 2.51e-05 M and the EC50 (SUDHL10) was 18.6 µM.
For `Cc1ccc2c(CCCOc3cccc4ccccc34)c(C(=O)O)n3c2c1-c1c(nn(C)c1C)CN(C)CCC3` (single isomer, unassigned; enantiomer 2) [Example 074, 7,10,11,12-tetramethyl-1-[3-(naphthalen-1-yloxy)propyl]-4,5,6,7,8,10-hexahydropyrazolo[3′,4′:7,8][1,5]diazecino[9,10,1-hi]indole-2-carboxylic Acid (Enantiomer 2)], the IC50 (MV-4-11; Homo sapiens, MV4-11, 72 h) was 7.04e-06 M, the IC50 (BCL-2) was greater than 20 µM and the IC50 (A2780) was 1.3e-05 M. It also gave an EC50 (SUDHL10) greater than 33 µM.
